# PMC7782793, “Hydroxamic acid-modified peptide microarrays for profiling isozyme-selective interactions and inhibition of histone deacetylases” (Nature Communications, 2021)
# “And” between values parts separate entries of the source, which are not always exact repeats. Identical values can stand only once. Marks after values point to notes of the source that are not given here. Non-standard residues stand in square brackets, D forms with d. Residues, ends and D or L forms follow the SMILES beside them. *: point of attachment. Asu = N[C@@H](CCCCCC(=O)O)C(=O)O; NHOH = ON*
# Tests used:
# [1] = target: T1, HDAC3/NCoR2 (Homo sapiens, UniProt O15379); experiment: Recombinant HDAC µSPOT microarray binding assay;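 also: peptide spots on cellulose slides incubated with rising HDAC enzyme concentrations, imaged together, four-parameter logistic fit, EC50 is enzyme concentration giving half-maximal binding signal, two experiments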
# T1 construct: HDAC3/NCoR2 (full length, C-terminal His tag, NCoR2 N-terminal GST tag); purchased BPS Bioscience 50003
# T1 sequence (O15379 whole entry): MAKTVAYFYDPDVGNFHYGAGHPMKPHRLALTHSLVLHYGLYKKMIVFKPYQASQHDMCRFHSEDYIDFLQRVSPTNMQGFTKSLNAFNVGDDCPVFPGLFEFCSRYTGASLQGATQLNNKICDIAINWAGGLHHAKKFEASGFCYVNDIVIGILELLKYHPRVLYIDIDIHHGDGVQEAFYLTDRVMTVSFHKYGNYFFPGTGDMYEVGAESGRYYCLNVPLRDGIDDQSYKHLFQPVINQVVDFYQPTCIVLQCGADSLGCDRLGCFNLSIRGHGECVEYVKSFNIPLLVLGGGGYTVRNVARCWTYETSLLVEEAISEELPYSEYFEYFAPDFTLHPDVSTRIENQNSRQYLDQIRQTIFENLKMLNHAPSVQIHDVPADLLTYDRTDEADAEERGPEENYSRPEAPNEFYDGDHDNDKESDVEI
# T1 sequence (Q9Y618 389-480 partner limits assumed): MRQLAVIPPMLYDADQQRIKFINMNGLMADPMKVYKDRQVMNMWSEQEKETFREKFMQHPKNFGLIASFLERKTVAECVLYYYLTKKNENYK
# [2] = target: T2, HDAC8 (Homo sapiens, UniProt Q9BY41); experiment: Recombinant HDAC µSPOT microarray binding assay;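 also: peptide µSPOT slides incubated with varying HDAC enzyme concentrations, imaged signal intensity fitted by four-parameter variable-slope regression, EC50 is enzyme concentration giving half-maximal binding, pH 7.4 HEPES buffer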
# T2 construct: HDAC8 (full length, C-terminal His tag, BPS Bioscience, cat. #: 50008); purchased BPS Bioscience 50008
# T2 sequence (Q9BY41 1-377): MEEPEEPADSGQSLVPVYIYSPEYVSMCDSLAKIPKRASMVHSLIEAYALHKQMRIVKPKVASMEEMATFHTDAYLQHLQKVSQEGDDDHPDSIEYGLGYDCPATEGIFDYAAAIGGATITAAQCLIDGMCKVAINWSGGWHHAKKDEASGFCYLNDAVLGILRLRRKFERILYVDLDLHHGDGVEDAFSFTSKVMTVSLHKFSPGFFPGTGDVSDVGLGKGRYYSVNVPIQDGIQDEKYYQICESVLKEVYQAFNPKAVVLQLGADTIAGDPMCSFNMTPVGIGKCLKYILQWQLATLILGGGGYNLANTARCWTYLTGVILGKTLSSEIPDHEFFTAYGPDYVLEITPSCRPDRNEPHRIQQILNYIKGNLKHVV
# [3] = target: T3, HDAC2 (Homo sapiens, UniProt Q92769); experiment: HDAC inhibition assay (fluorogenic, Ac-Leu-Gly-Lys(Ac)-AMC); assay type: biochemical; settings: for HDAC2 dose-response data (relative enzyme activity), Fig. 6 + S. Fig. 10: duplicate columns
# T3 construct: HDAC2 (full length, C-terminal His tag, BPS Bioscience, cat. #: 50002); purchased BPS Bioscience 50002
# T3 sequence (Q92769 whole entry): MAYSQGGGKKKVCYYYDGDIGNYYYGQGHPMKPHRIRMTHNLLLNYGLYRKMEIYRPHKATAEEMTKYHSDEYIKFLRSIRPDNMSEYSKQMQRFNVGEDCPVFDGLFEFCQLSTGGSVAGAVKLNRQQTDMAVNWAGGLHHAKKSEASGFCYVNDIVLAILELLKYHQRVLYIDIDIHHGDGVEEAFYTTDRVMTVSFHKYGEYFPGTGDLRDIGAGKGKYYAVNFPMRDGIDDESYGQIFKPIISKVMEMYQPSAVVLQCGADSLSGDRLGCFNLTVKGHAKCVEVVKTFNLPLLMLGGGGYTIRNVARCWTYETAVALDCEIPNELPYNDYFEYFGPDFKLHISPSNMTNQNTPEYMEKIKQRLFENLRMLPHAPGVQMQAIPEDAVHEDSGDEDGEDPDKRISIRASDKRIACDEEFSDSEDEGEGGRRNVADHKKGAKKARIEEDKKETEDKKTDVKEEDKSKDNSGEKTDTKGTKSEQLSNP
# [4] = target: T4, HDAC1 (Homo sapiens, UniProt Q13547); experiment: Recombinant HDAC µSPOT microarray binding assay;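 also: slides with spotted peptides incubated with six HDAC concentrations in HEPES buffer pH 7.4, spot intensities fitted by four-parameter logistic, EC50 as enzyme concentration giving half-maximal binding signal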
# T4 construct: HDAC1 (full length, C-terminal His tag, C-terminal FLAG tag, BPS Bioscience, cat. #: 50051); FLAG (C); purchased BPS Bioscience 50051
# T4 sequence (Q13547 whole entry): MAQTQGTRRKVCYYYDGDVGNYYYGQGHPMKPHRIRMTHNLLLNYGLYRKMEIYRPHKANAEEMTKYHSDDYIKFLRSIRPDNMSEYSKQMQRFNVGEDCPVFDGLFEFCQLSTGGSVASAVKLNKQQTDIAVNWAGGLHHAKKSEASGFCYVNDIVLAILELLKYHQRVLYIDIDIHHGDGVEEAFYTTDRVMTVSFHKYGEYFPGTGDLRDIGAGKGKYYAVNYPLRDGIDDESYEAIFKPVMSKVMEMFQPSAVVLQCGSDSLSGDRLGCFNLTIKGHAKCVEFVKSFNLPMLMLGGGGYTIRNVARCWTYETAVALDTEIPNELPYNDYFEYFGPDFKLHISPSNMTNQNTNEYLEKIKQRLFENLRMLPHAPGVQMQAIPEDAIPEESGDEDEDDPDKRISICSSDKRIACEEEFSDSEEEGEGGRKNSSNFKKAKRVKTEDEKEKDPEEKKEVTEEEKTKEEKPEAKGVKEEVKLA
# [5] = target: T1, HDAC3/NCoR2; experiment: HDAC inhibition assay (fluorogenic, Ac-Leu-Gly-Lys(Ac)-AMC); assay type: biochemical; settings: for HDAC3 dose-response data (relative enzyme activity), Fig. 6 + S. Fig. 10: duplicate columns
# [6] = target: T3, HDAC2; experiment: Recombinant HDAC µSPOT microarray binding assay;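 also: Cellulose-bound peptide spots on slides incubated with six HDAC enzyme concentrations, binding intensity read, four-parameter variable-slope fit, EC50 is enzyme concentration giving half-maximal binding, in HEPES buffer pH 7.4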
# Description: Experiments were performed twice, data were obtained with Array Analyze software (Active Motif), and data analysis and representation were performed with the GraphPad Prism 7 software. Outliers were curated manually and data were fitted to nonlinear regression [log(agonist) vs. response—variable slope (four parameters)]. […] Non-sigmoidal curves were denoted as not determined (N.D.) The pEC50 values were determined as the concentration of HDAC enzyme required for half-maximal binding signal.
# [7] = target: T5, HDAC6 (Homo sapiens, UniProt Q9UBN7); experiment: HDAC inhibition assay (fluorogenic, Ac-Leu-Gly-Lys(Ac)-AMC); assay type: biochemical; settings: HDAC6, replicates
# T5 construct: HDAC6 (full length, BPS Bioscience, cat. #: 50056); purchased BPS Bioscience 50056
# T5 sequence (Q9UBN7 1-1215): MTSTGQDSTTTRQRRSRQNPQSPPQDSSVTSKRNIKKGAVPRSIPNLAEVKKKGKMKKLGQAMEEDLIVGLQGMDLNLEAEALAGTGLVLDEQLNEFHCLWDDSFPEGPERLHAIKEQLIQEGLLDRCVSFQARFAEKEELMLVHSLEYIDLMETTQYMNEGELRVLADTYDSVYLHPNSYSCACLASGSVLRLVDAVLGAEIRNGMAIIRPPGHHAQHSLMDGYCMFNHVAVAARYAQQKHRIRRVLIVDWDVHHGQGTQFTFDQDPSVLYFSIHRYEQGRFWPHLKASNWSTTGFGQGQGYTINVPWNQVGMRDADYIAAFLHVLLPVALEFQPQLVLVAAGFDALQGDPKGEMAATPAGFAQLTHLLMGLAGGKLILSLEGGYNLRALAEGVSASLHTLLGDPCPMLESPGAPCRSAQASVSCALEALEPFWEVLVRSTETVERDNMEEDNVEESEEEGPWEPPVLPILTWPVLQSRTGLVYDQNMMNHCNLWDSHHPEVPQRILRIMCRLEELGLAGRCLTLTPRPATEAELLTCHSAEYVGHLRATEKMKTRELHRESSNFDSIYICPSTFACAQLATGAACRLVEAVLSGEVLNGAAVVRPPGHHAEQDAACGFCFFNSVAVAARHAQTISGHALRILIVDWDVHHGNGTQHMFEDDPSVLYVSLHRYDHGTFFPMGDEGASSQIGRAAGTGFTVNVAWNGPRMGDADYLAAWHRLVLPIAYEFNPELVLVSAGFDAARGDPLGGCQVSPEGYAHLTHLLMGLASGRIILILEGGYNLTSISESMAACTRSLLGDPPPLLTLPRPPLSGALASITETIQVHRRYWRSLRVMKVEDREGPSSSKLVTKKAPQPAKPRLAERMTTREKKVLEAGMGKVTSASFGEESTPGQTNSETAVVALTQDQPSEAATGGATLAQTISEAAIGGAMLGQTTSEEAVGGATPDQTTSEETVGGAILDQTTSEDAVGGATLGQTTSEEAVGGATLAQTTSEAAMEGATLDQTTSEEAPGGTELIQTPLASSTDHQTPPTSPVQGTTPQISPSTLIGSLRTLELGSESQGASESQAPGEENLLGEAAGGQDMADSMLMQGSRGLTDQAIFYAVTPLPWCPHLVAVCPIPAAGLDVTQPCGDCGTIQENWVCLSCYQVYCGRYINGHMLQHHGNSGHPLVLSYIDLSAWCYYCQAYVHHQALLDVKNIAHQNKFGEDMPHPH
# [8] = log[inhibitor(M)] -10,5850266520292*, whole line marked with asterisks
# [9] = resynthesized peptides, from Ki
smiles,measurement,setting,value
CC[C@H](C)[C@H](NC(=O)[C@@H](NC(=O)[C@H](CO)NC(=O)[C@H](CCCNC(=N)N)NC(=O)[C@H](CCCCCC(=O)NO)NC(=O)[C@H](CC(N)=O)NC(=O)[C@H](Cc1ccc(O)cc1)NC(=O)[C@H](Cc1c[nH]cn1)NC(=O)[C@H](C)NC(=O)[C@H](CC(C)C)NC(=O)[C@H](CCCNC(=N)N)NC(=O)[C@H](CO)NC(=O)[C@H](C)NC(=O)[C@H](CCC(=O)O)NC(C)=O)[C@@H](C)O)C(=O)N[C@H](C(=O)N[C@@H](CO)C(=O)N[C@@H](Cc1c[nH]c2ccccc12)C(N)=O)[C@@H](C)O [11a] (Ac-EASRLAHYN[Asu](NHOH)RSTITSW-NH2),EC50,[1],2.82 nM
same,EC50,[2],> 25.1 nM
same,"HDAC2 dose-response data (relative enzyme activity), Fig. 6 + S. Fig. 10",[3]; log[inhibitor(M)] -5,1.895 and 2.051
same,"HDAC2 dose-response data (relative enzyme activity), Fig. 6 + S. Fig. 10",[3]; log[inhibitor(M)] -5.69897,7.362 and 7.275
same,"HDAC2 dose-response data (relative enzyme activity), Fig. 6 + S. Fig. 10",[3]; log[inhibitor(M)] -7.79588,79.8909 and 86.975
same,"HDAC2 dose-response data (relative enzyme activity), Fig. 6 + S. Fig. 10",[3]; [8],"93,4642959* and 101,701404*"
same,Ki,"[3]; resynthesized peptide in solution, Cheng-Prusoff, n = 2",13.8 ± 0.1 nM
same,EC50,[4],> 25.1 nM
same,Ki,[5],3.45 ± 0.02 nM
same,"HDAC3 dose-response data (relative enzyme activity), Fig. 6 + S. Fig. 10",[5]; log[inhibitor(M)] -4.30103,0.8032 and 0.6973
same,"HDAC3 dose-response data (relative enzyme activity), Fig. 6 + S. Fig. 10",[5]; log[inhibitor(M)] -5,0.9208 and 1.031
same,"HDAC3 dose-response data (relative enzyme activity), Fig. 6 + S. Fig. 10",[5]; log[inhibitor(M)] -5.69897,3.115 and 3.491
same,"HDAC3 dose-response data (relative enzyme activity), Fig. 6 + S. Fig. 10",[5]; log[inhibitor(M)] -6.39794,8.97 and 10.4813
same,"HDAC3 dose-response data (relative enzyme activity), Fig. 6 + S. Fig. 10",[5]; log[inhibitor(M)] -7.09691,21.4302 and 25.3963
same,"HDAC3 dose-response data (relative enzyme activity), Fig. 6 + S. Fig. 10",[5]; log[inhibitor(M)] -7.79588,44.8111 and 52.4153
same,"HDAC3 dose-response data (relative enzyme activity), Fig. 6 + S. Fig. 10",[5]; log[inhibitor(M)] -8.49485,70.9236 and 81.6314
same,"HDAC3 dose-response data (relative enzyme activity), Fig. 6 + S. Fig. 10",[5]; log[inhibitor(M)] -9.19382,91.8976 and 96.1605
same,"HDAC3 dose-response data (relative enzyme activity), Fig. 6 + S. Fig. 10",[5]; log[inhibitor(M)] -9.89279,95.3177 and 97.0902
same,"HDAC3 dose-response data (relative enzyme activity), Fig. 6 + S. Fig. 10",[5]; [8],"96,0565351* and 98,690933*"
same,selectivity for HDAC3 vs. HDAC8,[5]; [9],63 fold and > 60 fold
same,selectivity for HDAC3 vs. HDACs 1 and 2,[5]; [9],4 fold and ~ 4 fold
same,EC50,[6],> 25.1 nM
same,residual enzymatic activity relative to control wells,[7]; log[inhibitor(M)] -4.30103,2.583 and 1.686
same,residual enzymatic activity relative to control wells,[7]; log[inhibitor(M)] -5,3.305 and 1.741
same,residual enzymatic activity relative to control wells,[7]; log[inhibitor(M)] -5.69897,5.202 and 4.016
same,residual enzymatic activity relative to control wells,[7]; log[inhibitor(M)] -6.39794,10.5662 and 11.8653
